From patent publication US20230131966A1, “FUNGICIDAL AMIDES” (FMC Corporation, priority 2020, published 2023)

Columns and labels:
Assay type in all cases: in vivo
Phytophthora infestans = experiment: whole plant or invertebrate; details: tomato seedlings
Plasmopara viticola = experiment: Test D: grape downy mildew control on grape seedlings
Botrytis cinerea = experiment: Test E: tomato Botrytis control on tomato seedlings
Phakopsora pachyrhizi = experiment: Test A: Asian soybean rust control on soybean seedlings
[1] = system: Erysiphe graminis f. sp. tritici; experiment: Test G: wheat powdery mildew control on wheat seedlings
Zymoseptoria tritici = experiment: Test C: wheat leaf blotch control on wheat seedlings
[2] = system: Puccinia recondita f. sp. tritici; experiment: Test B: wheat leaf rust control on wheat seedlings
[3] = 250 ppm, 100 = 100% disease control, 0 = no control
[4] = 250 ppm, soybean seedlings, 100 = 100% disease control, 0 = no control
[5] = 250 ppm, wheat seedlings, 100 = 100% disease control, 0 = no control
[6] = rate 250 ppm, relative to the controls
[7] = 50 ppm, 100 = 100% disease control, 0 = no control
[8] = 50 ppm, wheat seedlings, 100 = 100% disease control, 0 = no control

Compound	Test F disease control rating (Phytophthora infestans; [3]) [%]	Test D disease control rating (Plasmopara viticola; [3]) [%]	Test E disease control rating (Botrytis cinerea; [3]) [%]	Test A disease control rating (Phakopsora pachyrhizi; [4]) [%]	Test G disease control rating [1, 3] [%]	Test C disease control rating (Zymoseptoria tritici; [5]) [%]	Test B disease control rating [2, 5] [%]	further results
COc1ccnc(C(=O)N[C@@H](C)C(=O)OC(C(C)C)C2CCCCC2)c1OC(C)=O (mixture of isomers) [Compound 62, N-[[3-(acetyloxy)-4-methoxy-2-pyridinyl]carbonyl]-L-alanine 1-cyclohexyl-2-methylpropyl ester]	–	–	–	–	–	–	–	pest or weed control at 50 ppm (Phytophthora infestans; Phytophthora infestans, in Solanum lycopersicum, read-out: Test F disease control rating, 50 ppm, 100 = 100% disease control, 0 = no control): 0%; pest or weed control at 50 ppm (Plasmopara viticola; Plasmopara viticola, 50 ppm, 100 = 100% disease control, 0 = no control, read-out: Test D disease control rating): 74%; pest or weed control at 50 ppm (Botrytis cinerea; Botrytis cinerea, 50 ppm, 100 = 100% disease control, 0 = no control, read-out: Test E disease control rating): 0%; pest or weed control at 50 ppm (Phakopsora pachyrhizi; Phakopsora pachyrhizi, 50 ppm, soybean seedlings, 100 = 100% disease control, 0 = no control, read-out: Test A disease control rating): 100%; pest or weed control at 50 ppm ([1]; Blumeria graminis, 50 ppm, 100 = 100% disease control, 0 = no control, read-out: Test G disease control rating): 0%; pest or weed control at 50 ppm (Zymoseptoria tritici; Zymoseptoria tritici, 50 ppm, wheat seedlings, 100 = 100% disease control, 0 = no control, read-out: Test C disease control rating): 14%; pest or weed control at 50 ppm ([2]; Puccinia recondita, 50 ppm, wheat seedlings, 100 = 100% disease control, 0 = no control, read-out: Test B disease control rating): 93%
COc1ccnc(C(=O)NC(C)C(=O)OC(C)c2ccc(F)cc2Oc2ccccc2)c1O (mixture of isomers) [Compound 81]	0	53	0	93	0	78	68	–
COc1ccnc(C(=O)NC(C)C(=O)N(C)C(C)c2ccc(C3CCCCC3)cc2)c1OC(C)=O (mixture of isomers) [Compound 99]	0	39	0	98	0	88	68	–
COc1ccnc(C(=O)NC(C)C(=O)OC(C)c2ccccc2C(F)(F)F)c1OC(C)=O (mixture of isomers) [Compound 18]	0	35	0	62	0	93	68	–
COc1ccnc2c(=O)n([C@@H](C)C(=O)OC(C)c3ccc(C4CCCCC4)cc3)c(=O)oc12 (single isomer, unassigned) [Compound 195]	–	–	–	–	–	–	–	Test F disease control rating (100 = 100% disease control, 0 = no disease control) (Phytophthora infestans; [6]): 0%; Test D disease control rating (100 = 100% disease control, 0 = no disease control) (Plasmopara viticola; [6]): 17%; Test E disease control rating (100 = 100% disease control, 0 = no disease control) (Botrytis cinerea; [6]): 0%; Test A disease control rating (100 = 100% disease control, 0 = no disease control) (Phakopsora pachyrhizi; [6]): 100%; Test G disease control rating (100 = 100% disease control, 0 = no disease control) [1, 6]: 0%; Test C disease control rating (100 = 100% disease control, 0 = no disease control) (Zymoseptoria tritici; [6]): 83%; Test B disease control rating (100 = 100% disease control, 0 = no disease control) [2, 6]: 99%
COc1ccnc(C(=O)N[C@@H](C)C(=O)OC(C)C2CCCc3ccccc32)c1O (single isomer, unassigned) [Compound 184]	0	64	0	100	0	100	99	–
COc1ccnc(C(=O)N[C@@H](C)C(=O)OC(C)c2ccc(F)cc2Cc2ccc(F)cc2)c1OC(C)=O (single isomer, unassigned) [Compound 58]	0	27	0	98	0	86	99	–
COc1ccnc(C(=O)NC(C)C(=O)OC(C)c2ccc(C#C[Si](C)(C)C)cc2)c1OC(C)=O (mixture of isomers) [Compound 80]	0	28	0	100	0	98	100	–
COc1ccnc(C(=O)NC(C)C(=O)OC(C)c2ccccc2[N+](=O)[O-])c1O (mixture of isomers) [Compound 16]	0	59	0	13	0	76	0	–
COc1ccnc(C(=O)N[C@@H](C)C(=O)OC(C)c2ccc(F)cc2Cc2ccccc2)c1OC(C)=O (single isomer, unassigned) [Compound 37]	0	29	0	100	0	89	99	–
COc1ccnc(C(=O)NC(C)C(=O)OC(C)C2CCCCCC2)c1OC(C)=O (mixture of isomers) [Compound 101]	–	–	–	–	–	–	–	Test F disease control rating (Phytophthora infestans; [7]): 0%; Test D disease control rating (Plasmopara viticola; [7]): 86%; Test E disease control rating (Botrytis cinerea; [7]): 0%; Test A disease control rating (Phakopsora pachyrhizi; 50 ppm, soybean seedlings, 100 = 100% disease control, 0 = no control): 100%; Test G disease control rating [1, 7]: 0%; Test C disease control rating (Zymoseptoria tritici; [8]): 66%; Test B disease control rating [2, 8]: 68%
COc1ccnc(C(=O)N[C@@H](C)C(=O)OC(C)c2ccc(C3CCCCC3)cc2)c1OCOC(=O)C(C)C (single isomer, unassigned) [Compound 145]	0	22	0	100	0	94	99	–
CCC(OC(=O)[C@H](C)NC(=O)c1nccc(OC)c1OC(C)=O)c1ccc(C2CCCCC2)cc1 (single isomer, unassigned) [Compound 131]	0	6	0	100	89	87	96	–
COc1cccc(C(=O)NC(C)C(=O)OC(C)c2ccccc2Cc2ccccc2)c1O (stereo not shown) [Compound 6]	0	28	–	–	–	–	–	pest or weed control at 250 ppm (Botrytis cinerea; Botrytis cinerea, 250 ppm, 100 = 100% disease control, 0 = no control, read-out: Test E disease control rating): 0%; pest or weed control at 250 ppm (Phakopsora pachyrhizi; Phakopsora pachyrhizi, 250 ppm, soybean seedlings, 100 = 100% disease control, 0 = no control, read-out: Test A disease control rating): 0%; pest or weed control at 250 ppm ([1]; Blumeria graminis, 250 ppm, 100 = 100% disease control, 0 = no control, read-out: Test G disease control rating): 0%; pest or weed control at 250 ppm (Zymoseptoria tritici; Zymoseptoria tritici, 250 ppm, wheat seedlings, 100 = 100% disease control, 0 = no control, read-out: Test C disease control rating): 0%; pest or weed control at 250 ppm ([2]; Puccinia recondita, 250 ppm, wheat seedlings, 100 = 100% disease control, 0 = no control, read-out: Test B disease control rating): 0%
COc1ccnc(C(=O)NC(C)C(=O)OC(C)c2ccc(C(F)(F)F)cc2)c1O (mixture of isomers) [Compound 36]	0	72	0	100	0	81	99	–
COc1ccnc(C(=O)N[C@@H](C)C(=O)OC(C)c2ccc(C3CCCCC3)cc2)c1OCOC(C)=O (single isomer, unassigned) [Compound 146]	0	31	0	73	60	91	91	–
